Assay results taken from patent US12649750B2, “Macrocyclic compounds, compositions, and methods of using thereof” (Sionna Therapeutics Inc., priority 2022, dated 2026).

Experiments:
[1] = molecular target: T1, NBD1 (Homo sapiens, UniProt P13569); experiment: Aggregation analysis using differential static light scattering (DSLS), thermal stability of NBD1 (ΔTagg); format: binding; conditions: ΔTagg versus DMSO control, NBD1 0.2 mg/ml
T1 construct: Purified recombinant NBD1 was produced using previously described methods; made in house
T1 sequence (P13569 423-646 limits assumed): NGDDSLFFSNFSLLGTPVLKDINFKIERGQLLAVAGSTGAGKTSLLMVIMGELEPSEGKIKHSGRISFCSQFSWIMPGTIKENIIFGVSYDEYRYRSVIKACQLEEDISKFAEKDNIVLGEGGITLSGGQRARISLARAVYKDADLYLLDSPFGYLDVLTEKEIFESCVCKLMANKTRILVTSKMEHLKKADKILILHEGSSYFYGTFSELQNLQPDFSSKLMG
Procedure, shortened: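 Stabilisation is measured as the shift in aggregation onset of recombinant NBD1 (0.2 mg/ml, 2 mM ATP, 5 mM MgCl2, pH7.6) exposed to compound. Images are taken every 0.5° C. while heating at 1° C. per minute, and the inflection-point Tagg is corrected by the DMSO mean.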

[2] = molecular target: T2, CFTR (Homo sapiens, UniProt P13569, DEL508-508); experiment: TECC24 AUC fold over DMSO @10 μM, CFTR-mediated transepithelial chloride transport in CF-HBE cells; format: cell-based; conditions: test agent AUC divided by DMSO vehicle AUC, primary CF-HBE cells, ΔF508 homozygous donor, 48 hours incubation
T2 construct: Primary human bronchial epithelial cells from a ΔF508 homozygous CF donor; host or cells: primary human bronchial epithelial cells (CF-HBE), ΔF508 homozygous donor
T2 sequence (P13569 with tags, fused parts or gaps DEL508-508): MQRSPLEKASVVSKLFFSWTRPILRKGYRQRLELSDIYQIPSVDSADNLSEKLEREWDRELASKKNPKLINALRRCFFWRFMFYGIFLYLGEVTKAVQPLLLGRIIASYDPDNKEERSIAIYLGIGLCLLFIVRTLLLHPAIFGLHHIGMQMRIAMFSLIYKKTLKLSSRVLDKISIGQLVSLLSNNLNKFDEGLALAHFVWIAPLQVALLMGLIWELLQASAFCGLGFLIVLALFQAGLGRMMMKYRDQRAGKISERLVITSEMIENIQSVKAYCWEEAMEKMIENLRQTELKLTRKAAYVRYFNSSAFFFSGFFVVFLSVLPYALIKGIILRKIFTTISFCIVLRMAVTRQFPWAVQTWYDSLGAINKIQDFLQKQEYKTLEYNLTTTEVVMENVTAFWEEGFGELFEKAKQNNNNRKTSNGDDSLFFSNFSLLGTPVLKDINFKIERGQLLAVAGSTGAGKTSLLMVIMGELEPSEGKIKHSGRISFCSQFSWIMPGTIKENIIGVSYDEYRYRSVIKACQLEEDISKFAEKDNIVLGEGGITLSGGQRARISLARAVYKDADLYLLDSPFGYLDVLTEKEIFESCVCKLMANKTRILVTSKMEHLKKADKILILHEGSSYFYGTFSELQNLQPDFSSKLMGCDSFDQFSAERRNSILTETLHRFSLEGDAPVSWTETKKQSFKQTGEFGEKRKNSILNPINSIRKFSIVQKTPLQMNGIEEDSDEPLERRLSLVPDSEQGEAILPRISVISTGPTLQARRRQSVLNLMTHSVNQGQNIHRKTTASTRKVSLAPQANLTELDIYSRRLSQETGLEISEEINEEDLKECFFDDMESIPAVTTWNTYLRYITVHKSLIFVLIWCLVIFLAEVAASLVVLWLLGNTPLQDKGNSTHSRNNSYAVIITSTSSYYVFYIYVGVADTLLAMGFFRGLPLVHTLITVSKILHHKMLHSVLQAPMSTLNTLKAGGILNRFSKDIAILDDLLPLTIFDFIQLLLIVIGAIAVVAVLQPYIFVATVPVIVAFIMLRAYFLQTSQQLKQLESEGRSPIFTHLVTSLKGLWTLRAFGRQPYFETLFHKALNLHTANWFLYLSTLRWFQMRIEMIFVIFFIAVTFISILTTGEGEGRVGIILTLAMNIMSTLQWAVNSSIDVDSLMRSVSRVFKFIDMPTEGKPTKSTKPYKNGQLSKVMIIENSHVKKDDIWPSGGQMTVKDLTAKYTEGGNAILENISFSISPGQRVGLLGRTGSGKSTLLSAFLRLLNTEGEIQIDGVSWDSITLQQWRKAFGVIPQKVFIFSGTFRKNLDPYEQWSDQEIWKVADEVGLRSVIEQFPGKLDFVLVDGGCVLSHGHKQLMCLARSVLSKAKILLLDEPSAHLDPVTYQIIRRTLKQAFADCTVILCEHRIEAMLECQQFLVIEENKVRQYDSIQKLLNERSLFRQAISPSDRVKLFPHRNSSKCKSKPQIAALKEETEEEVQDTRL
Procedure, shortened: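 Value is ratio of test-agent to DMSO AUC of equivalent transepithelial Cl− current, integrated from forskolin (10 μM) stimulation to CFTR inhibitor-172 (20 μM) block, with benzamil 10 μM present. CF-HBE (ΔF508/ΔF508) cultures had 48 h compound exposure at 10 μM, 36.5° C before recording.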

Row | SMILES | DSLS 3D (100 μM ΔT) [1] | TECC (AUC, 10 μM) [2]
1 | Cn1nc2nc1-c1cc(ccc1F)[S+]([O-])c1c(F)cc3[nH]ccc3c1CCS(=O)(=O)CC(C)(C)CCC[C@]2(C)c1cccc(CCO)c1 (single isomer, unassigned) [Compound 216B] | C (a value greater than 10 °C and less than or equal to 25 °C is marked “C”) | C (a value between 20 and 80 is marked “C”)
2 | COCC(Cc1cccc([C@@]2(C)CCCC(C)(C)CS(=O)(=O)CCc3c(c(F)cc4[nH]ccc34)[S+]([O-])c3ccc(F)c(c3)-c3nc2nn3C)c1)C(=O)O (single isomer, unassigned) [Compound 218A] | B (a value above 5 °C and less than or equal to 10 °C is marked “B”) | A (a TECC value less than 12 is marked “A”)
3 | COCC(Cc1cccc([C@@]2(C)CCCC(C)(C)CS(=O)(=O)CCc3c(c(F)cc4[nH]ccc34)[S+]([O-])c3ccc(F)c(c3)-c3nc2nn3C)c1)C(=O)O (single isomer, unassigned) [Compound 218B] | C (a value greater than 10 °C and less than or equal to 25 °C is marked “C”) | C (a value between 20 and 80 is marked “C”)
4 | Cn1nc2nc1-c1cc(ccc1F)[S+]([O-])c1c(F)cc3[nH]ccc3c1CCS(=O)(=O)CC(C)(C)CCC[C@]2(C)c1cccc(CCS(C)(=O)=O)c1 (single isomer, unassigned) [Compound 220A] | A (an ΔTagg value less than or equal to 5 °C is marked “A”) | A (a TECC value less than 12 is marked “A”)
5 | Cn1nc2nc1-c1cc(ccc1F)[S+]([O-])c1c(F)cc3[nH]ccc3c1CCS(=O)(=O)CC(C)(C)CCC[C@]2(C)c1cccc(CCS(C)(=O)=O)c1 (single isomer, unassigned) [Compound 220B] | C (a value greater than 10 °C and less than or equal to 25 °C is marked “C”) | C (a value between 20 and 80 is marked “C”)
6 | C[C@@H](Cc1cccc([C@@]2(C)CCCC(C)(C)CS(=O)(=O)CCc3c(c(F)cc4[nH]ccc34)[S+]([O-])c3ccnc(c3)-c3nc2nn3C)c1)C(=O)O (single isomer, unassigned) [Compound 222A] | B (a value above 5 °C and less than or equal to 10 °C is marked “B”) | C (a value between 20 and 80 is marked “C”)
7 | C[C@@H](Cc1cccc([C@@]2(C)CCCC(C)(C)CS(=O)(=O)CCc3c(c(F)cc4[nH]ccc34)[S+]([O-])c3ccnc(c3)-c3nc2nn3C)c1)C(=O)O (single isomer, unassigned) [Compound 222B] | C (a value greater than 10 °C and less than or equal to 25 °C is marked “C”) | C (a value between 20 and 80 is marked “C”)
8 | Cn1nc2nc1-c1cc(ccc1F)[S+]([O-])c1c(F)cc3[nH]ccc3c1CCS(=O)(=O)CC(C)(C)CCC[C@]2(C)c1ccccc1 (single isomer, unassigned) [Compound 223A] | A (an ΔTagg value less than or equal to 5 °C is marked “A”) | A (a TECC value less than 12 is marked “A”)
9 | Cn1nc2nc1-c1cc(ccc1F)[S+]([O-])c1c(F)cc3[nH]ccc3c1CCS(=O)(=O)CC(C)(C)CCC[C@]2(C)c1ccccc1 (single isomer, unassigned) [Compound 223B] | C (a value greater than 10 °C and less than or equal to 25 °C is marked “C”) | C (a value between 20 and 80 is marked “C”)
10 | Cn1nc2nc1-c1cc(ccn1)[S+]([O-])c1c(F)cc3[nH]ccc3c1CCS(=O)(=O)CC(C)(C)CCC[C@]2(C)c1cccc(CCC(=O)O)c1 (single isomer, unassigned) [Compound 224] | C (a value greater than 10 °C and less than or equal to 25 °C is marked “C”) | C (a value between 20 and 80 is marked “C”)
11 | C[C@@H](Cc1cccc([C@@]2(C)CCCC(C)(C)CS(=O)(=O)CCc3c(c(F)c(F)c4[nH]ccc34)[S+]([O-])c3ccc(F)c(c3)-c3nc2nn3C)c1)C(=O)O (single isomer, unassigned) [Compound 225A] | B (a value above 5 °C and less than or equal to 10 °C is marked “B”) | C (a value between 20 and 80 is marked “C”)
12 | C[C@@H](Cc1cccc([C@@]2(C)CCCC(C)(C)CS(=O)(=O)CCc3c(c(F)c(F)c4[nH]ccc34)[S+]([O-])c3ccc(F)c(c3)-c3nc2nn3C)c1)C(=O)O (single isomer, unassigned) [Compound 225B] | C (a value greater than 10 °C and less than or equal to 25 °C is marked “C”) | C (a value between 20 and 80 is marked “C”)
13 | Cn1nc2nc1-c1cc(ccc1F)[S+]([O-])c1c(F)cc3[nH]ccc3c1CCS(=O)(=O)CC(C)(C)CCC[C@]2(C)c1cccc(C[C@@H](O)CO)c1 (single isomer, unassigned) [Compound 235A] | B (a value above 5 °C and less than or equal to 10 °C is marked “B”) | B (a value between 12-20 is marked “B”)
14 | Cn1nc2nc1-c1cc(ccc1F)[S+]([O-])c1c(F)cc3[nH]ccc3c1CCS(=O)(=O)CC(C)(C)CCC[C@]2(C)c1cccc(C[C@@H](O)CO)c1 (single isomer, unassigned) [Compound 235B] | C (a value greater than 10 °C and less than or equal to 25 °C is marked “C”) | C (a value between 20 and 80 is marked “C”)
15 | Cn1nc2nc1-c1cc(ccc1F)[S+]([O-])c1c(F)cc3[nH]ccc3c1CCS(=O)(=O)CC(C)(C)CCC[C@]2(C)c1cccc([C@@H](O)CO)c1 (single isomer, unassigned) [Compound 236A] | B (a value above 5 °C and less than or equal to 10 °C is marked “B”) | A (a TECC value less than 12 is marked “A”)
16 | Cn1nc2nc1-c1cc(ccc1F)[S+]([O-])c1c(F)cc3[nH]ccc3c1CCS(=O)(=O)CC(C)(C)CCC[C@]2(C)c1cccc([C@@H](O)CO)c1 (single isomer, unassigned) [Compound 236B] | C (a value greater than 10 °C and less than or equal to 25 °C is marked “C”) | C (a value between 20 and 80 is marked “C”)
17 | C[C@H](O)Cc1cccc([C@@]2(C)CCCC(C)(C)CS(=O)(=O)CCc3c(c(F)cc4[nH]ccc34)[S+]([O-])c3ccc(F)c(c3)-c3nc2nn3C)c1 (single isomer, unassigned) [Compound 237A] | A (an ΔTagg value less than or equal to 5 °C is marked “A”) | C (a value between 20 and 80 is marked “C”)
18 | C[C@H](O)Cc1cccc([C@@]2(C)CCCC(C)(C)CS(=O)(=O)CCc3c(c(F)cc4[nH]ccc34)[S+]([O-])c3ccc(F)c(c3)-c3nc2nn3C)c1 (single isomer, unassigned) [Compound 237B] | C (a value greater than 10 °C and less than or equal to 25 °C is marked “C”) | C (a value between 20 and 80 is marked “C”)
19 | C[C@@H](Cc1cccc([C@@]2(C)CCCC(C)(C)CS(=O)(=O)CCc3c(c(F)cc4[nH]ccc34)[S+]([O-])c3ccnc(c3)-c3nc2cs3)c1)C(=O)O (single isomer, unassigned) [Compound 239A] | A (an ΔTagg value less than or equal to 5 °C is marked “A”) | B (a value between 12-20 is marked “B”)
20 | C[C@@H](Cc1cccc([C@@]2(C)CCCC(C)(C)CS(=O)(=O)CCc3c(c(F)cc4[nH]ccc34)[S+]([O-])c3ccnc(c3)-c3nc2cs3)c1)C(=O)O (single isomer, unassigned) [Compound 239B] | A (an ΔTagg value less than or equal to 5 °C is marked “A”) | A (a TECC value less than 12 is marked “A”)
21 | C[C@@H](Cc1cccc([C@@]2(C)CCCC(C)(C)CS(=O)(=O)CCc3c(c(F)cc4[nH]ccc34)[S+]([O-])c3ccc(F)c(c3)-c3nc2cs3)c1)C(=O)O (single isomer, unassigned) [Compound 241A] | A (an ΔTagg value less than or equal to 5 °C is marked “A”) | C (a value between 20 and 80 is marked “C”)
22 | C[C@@H](Cc1cccc([C@@]2(C)CCCC(C)(C)CS(=O)(=O)CCc3c(c(F)cc4[nH]ccc34)[S+]([O-])c3ccc(F)c(c3)-c3nc2cs3)c1)C(=O)O (single isomer, unassigned) [Compound 241B] | A (an ΔTagg value less than or equal to 5 °C is marked “A”) | A (a TECC value less than 12 is marked “A”)
23 | Cn1nc2nc1-c1cc(ccn1)[S+]([O-])c1c(F)cc3[nH]ccc3c1CCS(=O)(=O)CC(C)(C)CCC[C@]2(C)c1cccc(CCS(C)(=O)=O)c1 (single isomer, unassigned) [Compound 243A] | B (a value above 5 °C and less than or equal to 10 °C is marked “B”) | C (a value between 20 and 80 is marked “C”)
24 | Cn1nc2nc1-c1cc(ccn1)[S+]([O-])c1c(F)cc3[nH]ccc3c1CCS(=O)(=O)CC(C)(C)CCC[C@]2(C)c1cccc(CCS(C)(=O)=O)c1 (single isomer, unassigned) [Compound 243B] | C (a value greater than 10 °C and less than or equal to 25 °C is marked “C”) | C (a value between 20 and 80 is marked “C”)
25 | C[C@H](Cc1ccc(C2(C)CCCC(C)(C)CS(=O)(=O)CCc3c(c(F)cc4[nH]ccc34)Oc3ccnc(c3)-c3nc2nn3C)s1)C(=O)O (single isomer, unassigned) [Compound 246A] | C (a value greater than 10 °C and less than or equal to 25 °C is marked “C”) | B (a value between 12-20 is marked “B”)
